Publication PMC7347136 (PLoS ONE, 2020)

Key:
Assay in all cases: Carna kinase panel screen
Assay type in all cases: biochemical
Settings in all cases: read-out: % Inhibition ± SD
DYRK2 = target: T1, DYRK2 (Homo sapiens, UniProt Q92630)
T1 construct: purchased Carna Biosciences
Procedure: (§1) IC50 values were determined from a 10-point concentration curve using ATP concentrations approximating Km values. […] The percentage inhibition of each test solution was calculated, which allowed the IC50 value to be determined from concentration versus percentage inhibition curves by fitting to a four parameter logistic curve.

DAPK1 = target: T2, DAPK1 (Homo sapiens, UniProt P53355)
T2 construct: purchased Carna Biosciences
Procedure: as §1

EphB2 = target: T3, EphB2 (Homo sapiens, UniProt P29323)
T3 construct: purchased Carna Biosciences
Procedure: as §1

SRPK2 = target: T4, SRPK2 (Homo sapiens, UniProt P78362)
T4 construct: purchased Carna Biosciences
Procedure: as §1

GSK3a = target: T5, GSK3a (Homo sapiens, UniProt P49840)
T5 construct: purchased Carna Biosciences
Procedure: as §1

MAP2K4 = target: T6, MAP2K4 (Homo sapiens, UniProt P45985)
T6 construct: purchased Carna Biosciences
Procedure: as §1

CDK7 = target: T7, CDK7 (Homo sapiens, UniProt P50613)
T7 construct: purchased Carna Biosciences
Procedure: as §1

CDC7 = target: T8, CDC7 (Homo sapiens, UniProt O00311)
T8 construct: purchased Carna Biosciences
Procedure: as §1

ACK = target: T9, ACK (Homo sapiens, UniProt Q07912)
T9 construct: purchased Carna Biosciences
Procedure: as §1

PKCh = target: T10, PKCh (Homo sapiens, UniProt P24723)
T10 construct: purchased Carna Biosciences
Procedure: as §1

SYK = target: T11, SYK (Homo sapiens, UniProt P43405)
T11 construct: purchased Carna Biosciences
Procedure: as §1

CDK6 = target: T12, CDK6 (Homo sapiens, UniProt Q00534)
T12 construct: purchased Carna Biosciences
Procedure: as §1

MAPKAPK2 = target: T13, MAPKAPK2 (Homo sapiens, UniProt P49137)
T13 construct: purchased Carna Biosciences
Procedure: as §1

ARG = target: T14, ARG (Homo sapiens, UniProt P42684)
T14 construct: purchased Carna Biosciences
Procedure: as §1

SGK2 = target: T15, SGK2 (Homo sapiens, UniProt Q9HBY8)
T15 construct: purchased Carna Biosciences
Procedure: as §1

BMPR1A = target: T16, BMPR1A (Homo sapiens, UniProt P36894)
T16 construct: purchased Carna Biosciences
Procedure: as §1

PASK = target: T17, PASK (Homo sapiens, UniProt Q96RG2)
T17 construct: purchased Carna Biosciences
Procedure: as §1

PDGFRb = target: T18, PDGFRb (Homo sapiens, UniProt P09619)
T18 construct: purchased Carna Biosciences
Procedure: as §1

MAP3K4 = target: T19, MAP3K4 (Homo sapiens, UniProt Q9Y6R4)
T19 construct: purchased Carna Biosciences
Procedure: as §1

TSSK1 = target: T20, TSSK1 (Homo sapiens, UniProt Q9BXA7)
T20 construct: purchased Carna Biosciences
Procedure: as §1

MAP2K2 = target: T21, MAP2K2 (Homo sapiens, UniProt P36507)
T21 construct: purchased Carna Biosciences
Procedure: as §1

BRSK1 = target: T22, BRSK1 (Homo sapiens, UniProt Q8TDC3)
T22 construct: purchased Carna Biosciences
Procedure: as §1

RSK2 = target: T23, RSK2 (Homo sapiens, UniProt P51812)
T23 construct: purchased Carna Biosciences
Procedure: as §1

ITK = target: T24, ITK (Homo sapiens, UniProt Q08881)
T24 construct: purchased Carna Biosciences
Procedure: as §1

EphA7 = target: T25, EphA7 (Homo sapiens, UniProt Q15375)
T25 construct: purchased Carna Biosciences
Procedure: as §1

PKD3 = target: T26, PKD3 (Homo sapiens, UniProt O94806)
T26 construct: purchased Carna Biosciences
Procedure: as §1

FLT3 = target: T27, FLT3 (Homo sapiens, UniProt P36888)
T27 construct: purchased Carna Biosciences
Procedure: as §1

MST2 = target: T28, MST2 (Homo sapiens, UniProt Q13188)
T28 construct: purchased Carna Biosciences
Procedure: as §1

PAK1 = target: T29, PAK1 (Homo sapiens, UniProt Q13153)
T29 construct: purchased Carna Biosciences
Procedure: as §1

COT = target: T30, COT (Homo sapiens, UniProt P41279)
T30 construct: purchased Carna Biosciences
Procedure: as §1

MAP3K1 = target: T31, MAP3K1 (Homo sapiens, UniProt Q13233)
T31 construct: purchased Carna Biosciences
Procedure: as §1

DLK = target: T32, DLK (Homo sapiens, UniProt Q12852)
T32 construct: purchased Carna Biosciences
Procedure: as §1

PHKG1 = target: T33, PHKG1 (Homo sapiens, UniProt Q16816)
T33 construct: purchased Carna Biosciences
Procedure: as §1

PKD1 = target: T34, PKD1 (Homo sapiens, UniProt Q15139)
T34 construct: purchased Carna Biosciences
Procedure: as §1

NEK1 = target: T35, NEK1 (Homo sapiens, UniProt Q96PY6)
T35 construct: purchased Carna Biosciences
Procedure: as §1

WEE1 = target: T36, WEE1 (Homo sapiens, UniProt P30291)
T36 construct: purchased Carna Biosciences
Procedure: as §1

RSK3 = target: T37, RSK3 (Homo sapiens, UniProt Q15349)
T37 construct: purchased Carna Biosciences
Procedure: as §1

NuaK1 = target: T38, NuaK1 (Homo sapiens, UniProt O60285)
T38 construct: purchased Carna Biosciences
Procedure: as §1

LYNb = target: T39, LYNb (Homo sapiens, UniProt P07948)
T39 construct: purchased Carna Biosciences
Procedure: as §1

FGR = target: T40, FGR (Homo sapiens, UniProt P09769)
T40 construct: purchased Carna Biosciences
Procedure: as §1

GSK3b = target: T41, GSK3b (Homo sapiens, UniProt P49841)
T41 construct: purchased Carna Biosciences
Procedure: as §1

SGK = target: T42, SGK (Homo sapiens, UniProt O00141)
T42 construct: purchased Carna Biosciences
Procedure: as §1

LYNa = target: T43, LYNa (Homo sapiens, UniProt P07948)
T43 construct: purchased Carna Biosciences
Procedure: as §1

DYRK3 = target: T44, DYRK3 (Homo sapiens, UniProt O43781)
T44 construct: purchased Carna Biosciences
Procedure: as §1

T25 sequence (Q15375 28-998): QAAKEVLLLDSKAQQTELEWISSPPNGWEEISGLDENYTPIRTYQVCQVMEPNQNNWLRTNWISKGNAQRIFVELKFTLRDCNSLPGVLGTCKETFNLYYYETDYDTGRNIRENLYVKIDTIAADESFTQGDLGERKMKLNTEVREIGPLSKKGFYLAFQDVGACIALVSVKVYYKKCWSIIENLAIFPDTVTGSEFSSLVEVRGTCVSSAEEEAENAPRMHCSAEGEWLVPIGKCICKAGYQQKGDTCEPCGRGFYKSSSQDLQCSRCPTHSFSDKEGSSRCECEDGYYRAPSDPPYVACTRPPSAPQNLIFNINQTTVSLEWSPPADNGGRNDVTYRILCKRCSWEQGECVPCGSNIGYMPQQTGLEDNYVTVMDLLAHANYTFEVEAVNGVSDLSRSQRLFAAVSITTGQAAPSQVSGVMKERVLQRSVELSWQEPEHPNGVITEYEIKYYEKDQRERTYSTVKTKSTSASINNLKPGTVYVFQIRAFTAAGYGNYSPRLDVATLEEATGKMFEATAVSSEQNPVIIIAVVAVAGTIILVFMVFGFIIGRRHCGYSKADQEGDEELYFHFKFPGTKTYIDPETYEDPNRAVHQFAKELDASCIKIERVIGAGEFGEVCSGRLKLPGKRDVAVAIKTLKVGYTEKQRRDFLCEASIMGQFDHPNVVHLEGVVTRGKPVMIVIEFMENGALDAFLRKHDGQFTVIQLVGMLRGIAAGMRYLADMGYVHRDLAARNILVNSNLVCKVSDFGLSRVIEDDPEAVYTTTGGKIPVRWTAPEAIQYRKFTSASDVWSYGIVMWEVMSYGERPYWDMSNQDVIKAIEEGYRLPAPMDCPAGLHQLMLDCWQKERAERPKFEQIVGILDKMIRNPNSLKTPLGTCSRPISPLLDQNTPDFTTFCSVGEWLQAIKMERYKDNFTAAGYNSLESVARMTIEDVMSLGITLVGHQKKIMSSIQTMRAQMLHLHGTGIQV
T16 sequence (P36894 24-532): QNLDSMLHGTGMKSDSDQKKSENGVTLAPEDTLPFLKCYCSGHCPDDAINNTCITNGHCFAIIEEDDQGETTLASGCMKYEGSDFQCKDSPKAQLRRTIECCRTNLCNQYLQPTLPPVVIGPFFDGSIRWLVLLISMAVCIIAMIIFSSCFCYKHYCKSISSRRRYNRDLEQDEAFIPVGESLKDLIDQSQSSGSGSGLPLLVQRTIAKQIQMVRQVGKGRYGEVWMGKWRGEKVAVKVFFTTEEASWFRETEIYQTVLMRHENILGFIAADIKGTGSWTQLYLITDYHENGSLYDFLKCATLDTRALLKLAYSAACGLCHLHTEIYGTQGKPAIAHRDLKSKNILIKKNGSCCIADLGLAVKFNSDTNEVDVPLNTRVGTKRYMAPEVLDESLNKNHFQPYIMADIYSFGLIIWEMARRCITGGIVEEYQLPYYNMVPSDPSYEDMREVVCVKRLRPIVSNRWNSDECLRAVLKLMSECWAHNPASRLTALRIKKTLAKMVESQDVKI
T41 sequence (P49841 whole entry): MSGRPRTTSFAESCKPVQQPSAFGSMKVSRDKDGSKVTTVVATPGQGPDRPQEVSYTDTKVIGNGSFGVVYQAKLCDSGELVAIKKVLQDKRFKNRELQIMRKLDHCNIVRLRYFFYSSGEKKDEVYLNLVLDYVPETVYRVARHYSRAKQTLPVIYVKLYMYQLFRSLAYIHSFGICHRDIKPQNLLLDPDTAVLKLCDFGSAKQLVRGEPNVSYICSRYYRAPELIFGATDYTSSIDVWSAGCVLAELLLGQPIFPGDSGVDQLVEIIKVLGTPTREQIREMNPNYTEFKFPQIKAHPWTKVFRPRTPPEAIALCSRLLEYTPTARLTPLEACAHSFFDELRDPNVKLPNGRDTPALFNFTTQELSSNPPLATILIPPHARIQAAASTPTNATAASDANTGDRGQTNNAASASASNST
T8 sequence (O00311 whole entry): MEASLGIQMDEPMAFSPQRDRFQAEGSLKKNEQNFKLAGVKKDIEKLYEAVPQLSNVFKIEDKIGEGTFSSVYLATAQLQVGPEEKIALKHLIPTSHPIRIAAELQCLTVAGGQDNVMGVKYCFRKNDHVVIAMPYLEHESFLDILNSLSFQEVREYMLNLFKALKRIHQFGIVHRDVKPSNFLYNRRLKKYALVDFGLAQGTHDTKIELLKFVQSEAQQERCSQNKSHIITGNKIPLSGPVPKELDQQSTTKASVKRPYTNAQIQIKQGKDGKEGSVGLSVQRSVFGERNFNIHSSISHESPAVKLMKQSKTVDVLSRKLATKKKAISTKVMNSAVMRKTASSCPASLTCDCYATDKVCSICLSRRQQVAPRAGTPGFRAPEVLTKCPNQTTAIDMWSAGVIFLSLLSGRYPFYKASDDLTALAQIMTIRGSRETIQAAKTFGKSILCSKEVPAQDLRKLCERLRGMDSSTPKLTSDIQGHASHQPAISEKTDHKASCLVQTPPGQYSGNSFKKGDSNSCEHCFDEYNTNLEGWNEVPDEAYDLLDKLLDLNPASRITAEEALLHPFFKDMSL
T8 sequence (Q9UBU7 whole entry partner): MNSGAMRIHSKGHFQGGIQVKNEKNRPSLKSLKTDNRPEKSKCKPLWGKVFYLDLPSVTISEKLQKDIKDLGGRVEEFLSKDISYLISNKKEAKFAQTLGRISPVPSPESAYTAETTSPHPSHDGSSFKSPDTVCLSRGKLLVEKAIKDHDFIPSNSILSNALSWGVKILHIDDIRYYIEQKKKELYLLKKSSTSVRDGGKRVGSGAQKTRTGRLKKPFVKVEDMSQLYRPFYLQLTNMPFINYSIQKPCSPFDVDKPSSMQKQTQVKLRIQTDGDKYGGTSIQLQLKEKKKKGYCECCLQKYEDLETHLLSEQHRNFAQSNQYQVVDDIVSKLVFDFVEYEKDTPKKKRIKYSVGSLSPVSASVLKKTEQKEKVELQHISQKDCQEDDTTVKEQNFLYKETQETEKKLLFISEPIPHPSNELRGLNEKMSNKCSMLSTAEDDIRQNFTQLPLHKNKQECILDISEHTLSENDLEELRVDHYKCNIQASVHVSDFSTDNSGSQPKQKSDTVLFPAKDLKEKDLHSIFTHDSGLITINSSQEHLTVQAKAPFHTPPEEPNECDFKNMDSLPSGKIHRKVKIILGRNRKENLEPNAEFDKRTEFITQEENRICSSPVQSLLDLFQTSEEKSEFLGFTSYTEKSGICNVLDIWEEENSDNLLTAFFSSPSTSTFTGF
T34 sequence (Q15139 whole entry): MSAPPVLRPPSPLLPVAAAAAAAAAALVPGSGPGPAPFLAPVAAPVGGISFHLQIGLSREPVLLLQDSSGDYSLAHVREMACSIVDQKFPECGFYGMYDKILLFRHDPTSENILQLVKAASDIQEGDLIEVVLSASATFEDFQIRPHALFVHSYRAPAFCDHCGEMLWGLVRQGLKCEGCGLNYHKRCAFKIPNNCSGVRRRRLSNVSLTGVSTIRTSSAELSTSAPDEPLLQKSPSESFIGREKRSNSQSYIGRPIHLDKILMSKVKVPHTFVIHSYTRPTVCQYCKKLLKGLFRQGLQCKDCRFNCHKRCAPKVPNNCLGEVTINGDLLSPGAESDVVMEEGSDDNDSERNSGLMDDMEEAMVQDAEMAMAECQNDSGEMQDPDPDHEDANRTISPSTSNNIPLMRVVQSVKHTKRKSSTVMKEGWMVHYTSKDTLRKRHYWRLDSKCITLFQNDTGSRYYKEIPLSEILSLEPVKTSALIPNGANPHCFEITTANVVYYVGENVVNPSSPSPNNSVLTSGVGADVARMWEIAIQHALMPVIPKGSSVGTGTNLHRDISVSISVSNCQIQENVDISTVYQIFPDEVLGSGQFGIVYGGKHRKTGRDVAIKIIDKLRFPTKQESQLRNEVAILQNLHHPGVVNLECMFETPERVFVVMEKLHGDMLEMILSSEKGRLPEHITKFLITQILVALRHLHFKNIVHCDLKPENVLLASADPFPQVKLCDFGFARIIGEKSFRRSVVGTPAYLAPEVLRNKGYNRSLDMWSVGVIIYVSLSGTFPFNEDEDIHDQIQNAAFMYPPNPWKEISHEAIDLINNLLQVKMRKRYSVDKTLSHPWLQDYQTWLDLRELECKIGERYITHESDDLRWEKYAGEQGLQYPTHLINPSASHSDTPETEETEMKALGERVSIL
T23 sequence (P51812 whole entry): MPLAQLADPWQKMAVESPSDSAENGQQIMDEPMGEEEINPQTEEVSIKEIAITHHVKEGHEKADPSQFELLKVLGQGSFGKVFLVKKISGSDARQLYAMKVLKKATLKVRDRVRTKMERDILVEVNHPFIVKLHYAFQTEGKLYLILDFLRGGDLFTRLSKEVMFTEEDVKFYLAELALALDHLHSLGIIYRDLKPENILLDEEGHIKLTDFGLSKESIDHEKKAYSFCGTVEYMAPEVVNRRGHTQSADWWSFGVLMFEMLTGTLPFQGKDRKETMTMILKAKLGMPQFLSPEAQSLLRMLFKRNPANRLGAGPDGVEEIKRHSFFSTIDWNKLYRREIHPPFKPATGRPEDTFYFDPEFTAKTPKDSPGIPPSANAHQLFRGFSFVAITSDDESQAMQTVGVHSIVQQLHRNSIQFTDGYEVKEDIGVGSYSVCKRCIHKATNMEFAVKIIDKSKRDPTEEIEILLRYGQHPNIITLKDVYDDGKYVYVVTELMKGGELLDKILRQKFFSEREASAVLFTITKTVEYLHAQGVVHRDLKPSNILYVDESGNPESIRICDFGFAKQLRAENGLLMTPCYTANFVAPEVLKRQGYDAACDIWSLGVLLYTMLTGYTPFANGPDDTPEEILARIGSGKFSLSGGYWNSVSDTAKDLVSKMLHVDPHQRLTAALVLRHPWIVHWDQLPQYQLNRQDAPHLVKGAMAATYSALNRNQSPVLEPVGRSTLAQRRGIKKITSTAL

CC[C@H](Nc1nc(NCc2cnc(C)cc2C)c2ncn(C(C)C)c2n1)[C@@H](C)O [Fadraciclib, 2-pentanol, 3-[[6-[[(4,6-dimethyl-3-pyridinyl)methyl]amino]-9-(1-methylethyl)-9Hpurin-2-yl]amino]-, (2R,3S)]
inhibition at 1 µM (DYRK2): -1.8 ± 0.1% | inhibition at 1 µM (DAPK1): -8.8 ± 0.1% | inhibition at 1 µM (EphB2): 5 ± 0.2% | inhibition at 1 µM (SRPK2): -3.8 ± 0.1% | inhibition at 1 µM (GSK3a): 19.3 ± 1.3% | inhibition at 1 µM (MAP2K4): -2.7 ± 0.1% | inhibition at 1 µM (CDK7): 86.7 ± 10.9% | inhibition at 1 µM (CDC7): -5.7% | inhibition at 1 µM (ACK): -0.7% | inhibition at 1 µM (PKCh): -6.1 ± 0.1% | inhibition at 1 µM (SYK): 2.2 ± 0.1% | inhibition at 1 µM (CDK6): 27 ± 0.9% | inhibition at 1 µM (MAPKAPK2): -8.6 ± 0.1% | inhibition at 1 µM (ARG): 1.8 ± 0.1% | inhibition at 1 µM (SGK2): 0.9% | inhibition at 1 µM (BMPR1A): 2.2% | inhibition at 1 µM (PASK): -0.4% | inhibition at 1 µM (PDGFRb): 3.2 ± 0.1% | inhibition at 1 µM (MAP3K4): 7.6 ± 0.1% | inhibition at 1 µM (TSSK1): 16 ± 0.5% | inhibition at 1 µM (MAP2K2): 4.1% | inhibition at 1 µM (BRSK1): -11.5 ± 0.1% | inhibition at 1 µM (RSK2): 5.6 ± 0.1% | inhibition at 1 µM (ITK): 2.3 ± 0.1% | inhibition at 1 µM (EphA7): 6 ± 0.3% | inhibition at 1 µM (PKD3): -1.4% | inhibition at 1 µM (FLT3): -8.7 ± 0.1% | inhibition at 1 µM (MST2): -1.5% | inhibition at 1 µM (PAK1): -5.8 ± 0.2% | inhibition at 1 µM (COT): -15.6 ± 0.4% | inhibition at 1 µM (MAP3K1): -6.6 ± 0.1% | inhibition at 1 µM (DLK): 0.8% | inhibition at 1 µM (PHKG1): -15 ± 0.4% | inhibition at 1 µM (PKD1): 12.4 ± 0.5% | inhibition at 1 µM (NEK1): -18.3 ± 0.1% | inhibition at 1 µM (WEE1): 35.1 ± 0.1% | inhibition at 1 µM (RSK3): 7.7% | inhibition at 1 µM (NuaK1): -2.5% | inhibition at 1 µM (LYNb): -8.7 ± 0.1% | inhibition at 1 µM (FGR): 3.3 ± 0.1% | inhibition at 1 µM (GSK3b): 23.8 ± 1% | inhibition at 1 µM (SGK): -0.8% | inhibition at 1 µM (LYNa): 2.2 ± 0.1% | inhibition at 1 µM (DYRK3): 0.9%
